These results are taken from patent US6225306A, “Biphenyl derivatives and drug composition” (Wakamoto Pharmaceutical Co., Ltd., priority 1997, dated 2001).

One assay concerns the target Vasopressin V1 Receptor (Rattus norvegicus, UniProt P30560). The assay is described as follows: biochemical. The format is binding, rat (Sprague-Dawley, female; liver crude membrane). The conditions noted are these: for inhibition at 0.1 µM: 1 h, read-out: Binding Rate of Vasopressin V1 Receptor.
Another assay has as its target Vasopressin V2 Receptor (Rattus norvegicus, UniProt Q00788). The assay is described as follows: biochemical. The format is binding, rat (Sprague-Dawley, female; kidney crude membrane). To be noted: for inhibition at 0.1 µM: 1 h, read-out: Binding Rate of Vasopressin V2 Receptor.
In a further assay the test system is Normal Conscious Rat. The assay is described as follows: Aquaretic Effects in Normal Conscious Rat (urine volume). The format is in vivo, rat (Sprague-Dawley, male). As for the experimental part: Aquaretic Effects in Normal Conscious Rat
Studies were performed with Sprague-Dawley male SPF rats (body weight: 240 to 320 g; 8-week-old). In this experiment, each group consisted of not less than 4 animals and rats were fasted over 16 to 20 hours. The animals were acclimatized in metabolic cages for one hour, then each compound to be tested was dissolved in 100% N,N-dimethylformamide or suspended in 5% gum arabic solution and administered to these animals intravenously (iv.) in a dose of 3 mg/kg or orally (p.o.) in a dose of 30 mg/kg. Immediately after the test compound or vehicle were orally administered, saline (25 ml/kg) was given orally. Spontaneous voided urines were collected for 4 hours after the administration of the compound and the amount of the urine were determined. In this case, the control group consisted of animals to which only 5% gum arabic was orally administered.
In addition, known compounds of Comparative Examples 2 and Comparative Examples 3 and 4 represented by the following formulas were used as control compounds.

The mark [1] stands for this setting: 10^-7 M, inhibition rate at this concentration.

Like-named read-outs stand apart in the source and are kept apart here.

Chain of Vasopressin V2 Receptor (Q00788 whole entry): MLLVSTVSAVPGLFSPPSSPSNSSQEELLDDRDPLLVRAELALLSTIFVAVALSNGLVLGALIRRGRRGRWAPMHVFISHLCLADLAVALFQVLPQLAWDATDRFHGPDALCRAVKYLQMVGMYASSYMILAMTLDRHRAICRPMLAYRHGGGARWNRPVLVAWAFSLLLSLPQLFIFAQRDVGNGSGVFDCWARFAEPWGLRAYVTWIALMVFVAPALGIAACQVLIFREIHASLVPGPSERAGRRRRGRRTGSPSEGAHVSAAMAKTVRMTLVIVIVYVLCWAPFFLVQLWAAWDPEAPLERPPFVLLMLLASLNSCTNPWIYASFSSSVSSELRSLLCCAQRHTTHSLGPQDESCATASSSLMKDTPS
Chain of Vasopressin V1 Receptor (P30560 whole entry): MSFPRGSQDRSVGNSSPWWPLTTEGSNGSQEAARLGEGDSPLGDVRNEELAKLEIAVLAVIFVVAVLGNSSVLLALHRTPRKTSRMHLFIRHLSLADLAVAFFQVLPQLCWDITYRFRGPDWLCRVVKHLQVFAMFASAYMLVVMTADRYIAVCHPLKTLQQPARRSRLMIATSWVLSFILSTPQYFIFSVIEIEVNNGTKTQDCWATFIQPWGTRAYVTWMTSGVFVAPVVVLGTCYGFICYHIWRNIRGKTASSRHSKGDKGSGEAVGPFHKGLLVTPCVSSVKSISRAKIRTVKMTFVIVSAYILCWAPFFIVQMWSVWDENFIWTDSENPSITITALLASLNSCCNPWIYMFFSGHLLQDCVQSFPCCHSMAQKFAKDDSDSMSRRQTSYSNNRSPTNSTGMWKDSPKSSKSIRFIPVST
Protocol for Vasopressin V1 Receptor: The livers excised from Sprague-Dawley female rats were cut into small pieces, and were homogenized in 50 mM Tris-HCl, pH 7.4 hereunder referred to as "buffer"). The homogenate was centrifuged at 50000×g, at 4° C. for 20 minutes. The pellet was added the buffer in an amount of 10 times the volume of the pellet, the mixture was recentrifuged by the same method as described above to wash the residue. The buffer was further added to the resulting pellet so that the protein content thereof was adjusted to 10 mg/ml to thus give a crude membrane fraction of rat liver. The crude membrane fraction of rat liver was used in the following test. More specifically, 5000 μg of the crude liver membrane was incubated with [^3 H]-Arg-vasopressin V-1 antagonist ([^3 H) vasopressin V1 antagonist: 2 nM) and various concentration (3×10^-12 to 10^-6) of the test compounds in a 1000 μL of buffer containing 10 mM magnesium chloride, 10 mM potassium chloride and 0.1% bovine serum albumin at 25° C. for 60 minutes. Thereafter the incubation mixture was rapidly filtered by vacuum using a cell harvester. The filters were washed with buffer to remove free ligands and excess buffer, and to thus trap labeled ligand linked with the receptor on the filter paper. The filter paper was sufficiently dried and mixed with a liquid scintillator, and the amount of the [^3 H] vasopressin V1 antagonist bonded to the membrane was determined using a liquid scintillation counter. The inhibition rate at each concentration was calculated according to the following equation:
Inhibition Rate (%)=100-[(B-N)/(B0 -N)]×100
Wherein B represents the amount of the [^3 H] vasopressin V1 antagonist bonded to the membrane in the presence of known amounts of the compound to be tested and the [^3 CH] vasopressin V1 antagonist;
B0 represents the amount of the [^3 H] vasopressin V1 antagonist bonded to the membrane in the absence of the compound to be tested;
N represents the amount of the [^3 H] vasopressin V1 antagonist bonded to the membrane in the presence of an excess of vasopressin (10^-6 M).
The IC50 value (the concentration required to cause 50% inhibition of the specific binding of [^3 H]-V1 antagonist) was determined. […] On the other hand, for the compounds which were investigated only one concentration (10^-7 M), the inhibition rate at that concentration was defined to be the binding rate.

As to `CN(C)[C@H]1C[C@@H]2CN(C(=O)c3ccc(NC(=O)c4ccccc4-c4ccccc4)cc3)c3ccccc3N2C1` [Example 21, (2S, 3aR)-2-(N,N-Dimethylamino)-5-[4-[(2-Phenylbenzoyl) Amino]Benzoyl]-1,2,3,3a,4,5-Hexahydro-Pyrrolo[1,2-a]Quinoxaline], the inhibition at 0.1 µM on Vasopressin V1 Receptor (setting [1]) stood at 19.5%; at Vasopressin V2 Receptor (setting [1]), 100%. Moreover, the “Amount of Urine Volume” value with Normal Conscious Rat (3 mg/kg, i.v.) is given as 47.6 ml/kg/0-4 hr; in the assay with Normal Conscious Rat (30 mg/kg, p.o.) it was 81.4 ml/kg/0-4 hr.
In the case of `O=C(Nc1ccc(C(=O)N2C[C@@H]3CCCN3c3ccccc32)cc1)c1ccccc1-c1ccccc1` [Example 1, (3aS)-5-[4-[(2-Phenylbenzoyl)Amino]Benzoyl]-1,2,3,3a,4,5-Hexahydro-Pyrrolo[1,2-a]Quinoxaline], the “Amount of Urine Volume” value in the assay on Normal Conscious Rat (3 mg/kg, i.v.) is listed as 33.1 ml/kg/0-4 hr; with Normal Conscious Rat (30 mg/kg, p.o.) it was 40.3 ml/kg/0-4 hr.
`O=C(Nc1ccc(C(=O)N2CC[C@H]3C[C@@H](O)CN3c3ccccc32)cc1)c1ccccc1-c1ccccc1` [Example 52, (2R,3aS)-2-Hydroxy-6-[4-[(2-Phenylbenzoyl) Amino]Benzoyl]-2,3,3a,4,5,6-Hexahydro-1H-Pyrrolo[1,2-a][1,5]Benzodiazepine]: the results for the inhibition at 0.1 µM on Vasopressin V1 Receptor (setting [1]) and on Vasopressin V2 Receptor (setting [1]) were 95.7% and 100%, respectively. Also, the “Amount of Urine Volume” value is 60.6 ml/kg/0-4 hr with Normal Conscious Rat (3 mg/kg, i.v.) and 36.6 ml/kg/0-4 hr in the assay on Normal Conscious Rat (30 mg/kg, p.o.).
The like results for `O=C(Nc1ccc(C(=O)N2CC[C@@H]3C[C@@H](O)CN3c3ccccc32)cc1)c1ccccc1-c1ccccc1` [Example 50] were, in that order, 92.4%, 97.8%, 60.0 ml/kg/0-4 hr and 36.0 ml/kg/0-4 hr.
Take `Cl.O=C(Nc1ccc(C(=O)N2C[C@H]3C[C@H](O)CN3Cc3ccccc32)cc1)c1ccccc1-c1ccccc1` [Example 47, (2S, 11aR)-2-Hydroxy-10-[4-[(2-Phenylbenzoyl) Amino]Benzoyl]-1,2,3,10,11,11a-Hexahydro-5H-Pyrrolo[2,1-c][1,4]Benzodiazepine Hydrochloride]: the inhibition at 0.1 µM on Vasopressin V1 Receptor is 59.8%; at Vasopressin V2 Receptor it was 91.9%. Moreover, the half-maximal inhibitory concentration (IC50) worked out at 62 nM on Vasopressin V1 Receptor ([3H] vasopressin V1 antagonist 2 nM, 25° C., 60 minutes, read-out: Affinity for Vasopressin V1 Receptor, IC50) and 0.77 nM at Vasopressin V2 Receptor ([3H] vasopressin V2 antagonist 2 nM, 25° C., 60 minutes, read-out: Affinity for Vasopressin V2 Receptor, IC50). Further, the “Amount of Urine Volume” value in the assay with Normal Conscious Rat (3 mg/kg, i.v.) turned out to be 79.5 ml/kg/0-4 hr; in the assay on Normal Conscious Rat (30 mg/kg, p.o.), 109.6 ml/kg/0-4 hr.
Regarding `Cl.O=C1C[C@@H]2CN(C(=O)c3ccc(NC(=O)c4ccccc4-c4ccccc4)cc3)c3ccccc3CN2C1` [Example 48, (11aR)-10-[4-[(2-Phenylbenzoyl) Amino]Benzoyl]-1,2,3,10,11, 11a-Hexahydro-5H-Pyrrolo[2,1-c][1,4]Benzodiazepin-2-One Hydrochloride], the inhibition at 0.1 µM worked out at 42.3% on Vasopressin V1 Receptor and 96.8% at Vasopressin V2 Receptor. The “Amount of Urine Volume” value turned out to be 78.9 ml/kg/0-4 hr with Normal Conscious Rat (3 mg/kg, i.v.) and 14.8 ml/kg/0-4 hr with Normal Conscious Rat (30 mg/kg, p.o.).
In the case of `CC(=O)O[C@H]1C[C@@H]2CN(C(=O)c3ccc(NC(=O)c4ccccc4-c4ccccc4)cc3)c3ccccc3CN2C1` [Example 46, (2S, 11aR)-2-Acetoxy-10-[4-[(2-Phenylbenzoyl) Amino]Benzoyl]-1,2,3,10,11,11a-Hexahydro-5H-Pyrrolo[2,1-c][1,4]Benzodiazepine], the “Amount of Urine Volume” value in the assay with Normal Conscious Rat (3 mg/kg, i.v.) amounted to 82.5 ml/kg/0-4 hr; with Normal Conscious Rat (30 mg/kg, p.o.), 118.8 ml/kg/0-4 hr.
Turning to `O=C(Nc1ccc(C(=O)N2CC[C@H]3CCCN3c3ccccc32)cc1)c1ccccc1-c1ccccc1` [Example 51, (3aR)-6-[4-[(2-Phenylbenzoyl) Amino]Benzoyl]-2,3,3a,4,5,6-Hexahydro-1H-Pyrrolo[1,2-a][1,5]Benzodiazepine], the “Amount of Urine Volume” value with Normal Conscious Rat (3 mg/kg, i.v.) stood at 63.8 ml/kg/0-4 hr; in the assay on Normal Conscious Rat (30 mg/kg, p.o.) it was 21.7 ml/kg/0-4 hr.
For the compound `Cl.O=C(Nc1ccc(C(=O)N2C[C@H]3CCCN3Cc3ccccc32)cc1)c1ccccc1-c1ccccc1` [Example 43, (11aR)-10-[4-[(2-Phenylbenzoyl) Amino]Benzoyl]-1,2,3,10,11, 11a-Hexahydro-5H-Pyrrolo[2,1-c][1,4]Benzodiazepine Hydrochloride], the figures for the inhibition at 0.1 µM at Vasopressin V1 Receptor and at Vasopressin V2 Receptor were 61.6% and 100%, respectively. Besides, the “Amount of Urine Volume” value in the assay with Normal Conscious Rat (3 mg/kg, i.v.) was determined as 77.5 ml/kg/0-4 hr; in the assay with Normal Conscious Rat (30 mg/kg, p.o.), 121.6 ml/kg/0-4 hr.
Regarding `O=C(Nc1ccc(C(=O)N2CC[C@@H]3CCCN3c3ccccc32)cc1)c1ccccc1-c1ccccc1` [Example 49, (3aS)-6-[4-[(2-Phenylbenzoyl) Amino]Benzoyl]-2,3,3a,4,5,6-Hexahydro-1H-Pyrrolo[1,2-a][1,5]Benzodiazepine], the inhibition at 0.1 µM at Vasopressin V1 Receptor (setting [1]) turned out to be 88.3%; at Vasopressin V2 Receptor (setting [1]), 92.8%. Besides, the “Amount of Urine Volume” value in the assay with Normal Conscious Rat (3 mg/kg, i.v.) is reported as 76.5 ml/kg/0-4 hr; with Normal Conscious Rat (30 mg/kg, p.o.), 43.8 ml/kg/0-4 hr.
Turning to `Cl.O=C(Nc1ccc(C(=O)N2C[C@H]3C[C@@H](O)CN3Cc3ccccc32)cc1)c1ccccc1-c1ccccc1` [Example 45, (2R,11aR)-2-Hydroxy-10-[4-[(2-Phenylbenzoyl) Amino]Benzoyl]-1,2,3,10,11,11a-Hexahydro-5H-Pyrrolo[2,1-c][1,4]Benzodiazepine Hydrochloride], the “Amount of Urine Volume” value is listed as 51.4 ml/kg/0-4 hr in the assay with Normal Conscious Rat (3 mg/kg, i.v.) and 93.9 ml/kg/0-4 hr with Normal Conscious Rat (30 mg/kg, p.o.).
The like results for `O=C(Nc1ccc(C(=O)N2C[C@@H]3C[C@H](O)CN3c3ccccc32)cc1)c1ccccc1-c1ccccc1` [Example 7, (2S, 3aS)-2-Hydroxy-5-[4-[(2-Phenylbenzoyl) Amino]Benzoyl]-1,2,3,3a,4,5-Hexahydro-Pyrrolo[1,2-a]Quinoxaline] were, in that order, 29.3 ml/kg/0-4 hr and 33.8 ml/kg/0-4 hr.
The like results for `CN(C)C1CC2CCN(C(=O)c3ccc(NC(=O)c4ccccc4-c4ccccc4)cc3)c3ccccc3N2C1.Cl` [Example 56, (2S, 3aR)-2-(N,N-dimethylamino)-6-[4-[(2-phenylbenzoyl)amino]benzoyl]-2,3,3a,4,5,6-hexahydro-1H-Pyrrolo[1,2-a][1,5]benzodiazepinehydrochloride] were, in that order, 87.4 ml/kg/0-4 hr and 116.4 ml/kg/0-4 hr.
`Cc1ccccc1C(=O)Nc1ccc(C(=O)N2Cc3cccn3Cc3ccccc32)cc1` [Comp. Ex. 4, reference compound]: the “Amount of Urine Volume” value is reported as 34.8 ml/kg/0-4 hr with Normal Conscious Rat (3 mg/kg, i.v.) and 22.6 ml/kg/0-4 hr with Normal Conscious Rat (30 mg/kg, p.o.).
The like results for `Cc1ccc(-c2ccccc2C(=O)Nc2ccc(C(=O)N3C[C@H]4C[C@@H](O)CN4c4ccccc43)cc2)cc1` [Example 14, (2R,3aR)-2-Hydroxy-5-[4-[[2-(4-Tolyl) Benzoyl]Amino]Benzoyl]-1,2,3,3a-4,5-Hexahydro-Pyrrolo[1,2-a]Quinoxaline] were, in that order, 60.6 ml/kg/0-4 hr and 90.3 ml/kg/0-4 hr.
The like results for `CN(C)[C@H]1C[C@H]2CN(C(=O)c3ccc(NC(=O)c4ccccc4-c4ccccc4)cc3)c3ccccc3N2C1.Cl` [Example 10, (2S, 3aS)-2-(N,N-Dimethylamino)-5-[4-[(2-Phenylbenzoyl) Amino]Benzoyl]-1,2,3,3a,4,5-Hexahydro-Pyrrolo[1,2-a]Quinoxaline Hydrochloride] were, in that order, 22.2 ml/kg/0-4 hr and 39.6 ml/kg/0-4 hr.
The like results for `Cc1ccc(-c2ccccc2C(=O)Nc2ccc(C(=O)N3C[C@H]4CCCN4c4ccccc43)cc2)cc1` [Example 12, (3aR)-5-[4-[[2-(4-Tolyl) Benzoyl]Amino]Benzoyl]-1,2,3,3a,4,5-Hexahydro-Pyrrolo[1,2-a]Quinoxaline] were, in that order, 66.0 ml/kg/0-4 hr and 12.8 ml/kg/0-4 hr.
Regarding `O=C(Nc1ccc(C(=O)N2C[C@@H]3C[C@@H](O)CN3c3ccccc32)cc1)c1ccccc1-c1ccccc1` [Example 3], the “Amount of Urine Volume” value came out at 29.5 ml/kg/0-4 hr in the assay on Normal Conscious Rat (3 mg/kg, i.v.) and 54.0 ml/kg/0-4 hr with Normal Conscious Rat (30 mg/kg, p.o.).
As to `CC(=O)O[C@H]1C[C@@H]2CCN(C(=O)c3ccc(NC(=O)c4ccccc4-c4ccccc4)cc3)c3ccccc3N2C1` [Example 53, (2S, 3aS)-2-Acetoxy-6-[4-[(2-Phenylbenzoyl) Amino]Benzo]-2,3,3a,4,5,6-Hexahydro-1H-Pyrrolo[1,2-a][1,5]Benzodiazepine], the figures for the inhibition at 0.1 µM on Vasopressin V1 Receptor (setting [1]) and on Vasopressin V2 Receptor (setting [1]) were 63.8% and 97.9%, respectively.
As to `O=C(Nc1ccc(C(=O)N2C[C@H]3C[C@H](F)CN3c3ccccc32)cc1)c1ccccc1-c1ccccc1` [Example 23, (2S, 3aR)-2-Fluoro-5-[4-[(2-Phenylbenzoyl) Amino]Benzoyl]-1,2,3,3a,4,5-Hexahydro-Pyrrolo[1,2-a]Quinoxaline], the “Amount of Urine Volume” value in the assay on Normal Conscious Rat (3 mg/kg, i.v.) is 27.2 ml/kg/0-4 hr; in the assay with Normal Conscious Rat (30 mg/kg, p.o.) it was 35.6 ml/kg/0-4 hr.
For `Cc1ccc(-c2ccccc2C(=O)Nc2ccc(C(=O)N3C[C@@H]4C[C@H](O)CN4c4ccccc43)cc2)cc1` [Example 8, (2S, 3aS)-2-Hydroxy-5-[4-[[2-(4-Tolyl) Benzoyl]Amino]Benzoyl]-1,2,3,3a,4,5-Hexahydro-Pyrrolo[1,2-a]Quinoxahine], the inhibition at 0.1 µM on Vasopressin V1 Receptor (setting [1]) was 16.3%; at Vasopressin V2 Receptor (setting [1]), 100%.
